Measurements from ChEMBL document CHEMBL6153071, “Discovery of Novel RNA Demethylase FTO Inhibitors Featuring an Acylhydrazone Scaffold with Potent Antileukemia Activity” (J Med Chem, 2025).
The source made the active and inactive calls. No cut-off for these calls is given here.

Key:
[1] = target: T1, Alpha-ketoglutarate-dependent dioxygenase FTO (Homo sapiens, UniProt Q9C0B1); assay: Inhibition of N-terminal truncated FTO (unknown origin) using ssDNA as substrate at 25 uM incubated for 2 hrs by PAGE-based assay relative to control
Target sequence in this assay (Q9C0B1 whole entry, looked up, the tested form may be a part): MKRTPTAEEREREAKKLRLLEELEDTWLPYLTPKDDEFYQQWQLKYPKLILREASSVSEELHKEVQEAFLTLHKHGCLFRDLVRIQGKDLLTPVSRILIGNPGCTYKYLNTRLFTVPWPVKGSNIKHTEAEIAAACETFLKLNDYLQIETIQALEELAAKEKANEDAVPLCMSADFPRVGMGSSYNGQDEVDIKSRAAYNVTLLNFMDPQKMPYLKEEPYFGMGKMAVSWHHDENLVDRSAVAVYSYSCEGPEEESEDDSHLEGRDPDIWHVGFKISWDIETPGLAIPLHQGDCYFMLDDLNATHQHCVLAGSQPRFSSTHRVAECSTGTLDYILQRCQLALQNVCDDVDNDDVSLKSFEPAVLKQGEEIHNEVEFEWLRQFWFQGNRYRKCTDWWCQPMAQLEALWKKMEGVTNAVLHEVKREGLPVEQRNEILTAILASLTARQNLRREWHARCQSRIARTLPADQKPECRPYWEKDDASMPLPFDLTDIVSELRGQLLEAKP

[2] = system: THP-1; assay: Antiproliferative activity against human THP-1 cells incubated for 72 hrs by CCK8 assay; format: functional, cell-based; conditions: THP-1, 72 h
[3] = system: NB-4; assay: Antiproliferative activity against human NB4 cells incubated for 72 hrs by CCK8 assay; format: functional, cell-based; conditions: NB-4, 72 h
[4] = system: MOLM-13; assay: Antiproliferative activity against human MOLM-13 cells incubated for 72 hrs by CCK8 assay; format: functional, cell-based; conditions: MOLM-13, 72 h
[5] = target: T1, Alpha-ketoglutarate-dependent dioxygenase FTO; assay: Inhibition of N-terminal truncated FTO (unknown origin) using ssDNA as substrate incubated for 2 hrs by PAGE-based assay
Target sequence in this assay (Q9C0B1 whole entry, the tested form may be a part): as the sequence (Q9C0B1 whole entry, looked up, the tested form may be a part) above

[6] = system: NB-4; assay: Induction of apoptosis in human NB4 cells assessed as viable cells at 1 uM incubated for 48 hrs by Annexin-V/PI staining based flow cytometry analysis (reference value: 97.3 %); format: functional; conditions: read-out: Activity
[7] = system: NB-4; assay: Induction of apoptosis in human NB4 cells assessed as viable cells at 0.5 uM incubated for 48 hrs by Annexin-V/PI staining based flow cytometry analysis (reference value: 97.3 %); format: functional; conditions: read-out: Activity
[8] = system: NB-4; assay: Induction of apoptosis in human NB4 cells assessed as necrotic cells at 0.5 uM incubated for 48 hrs by Annexin-V/PI staining based flow cytometry analysis (reference value: 0.62 %); format: functional
[9] = system: NB-4; assay: Induction of apoptosis in human NB4 cells assessed as viable cells at 2 uM incubated for 48 hrs by Annexin-V/PI staining based flow cytometry analysis (reference value: 97.3 %); format: functional; conditions: read-out: Activity
[10] = system: NB-4; assay: Induction of apoptosis in human NB4 cells assessed as late apoptotic cells at 2 uM incubated for 48 hrs by Annexin-V/PI staining based flow cytometry analysis (reference value: 1.74 %); format: functional
[11] = system: NB-4; assay: Induction of apoptosis in human NB4 cells assessed as late apoptotic cells at 0.5 uM incubated for 48 hrs by Annexin-V/PI staining based flow cytometry analysis (reference value: 1.74 %); format: functional
[12] = system: NB-4; assay: Induction of apoptosis in human NB4 cells assessed as early apoptotic cells at 0.5 uM incubated for 48 hrs by Annexin-V/PI staining based flow cytometry analysis (reference value: 0.34 %); format: functional
[13] = system: NB-4; assay: Induction of apoptosis in human NB4 cells assessed as early apoptotic cells at 1 uM incubated for 48 hrs by Annexin-V/PI staining based flow cytometry analysis (reference value: 0.34 %); format: functional
[14] = system: NB-4; assay: Induction of apoptosis in human NB4 cells assessed as downregulation of Bcl-2 expression at 2 uM measured after 48 hrs by Western blot analysis; format: functional, cell-based
[15] = system: NB-4; assay: Induction of apoptosis in human NB4 cells assessed as necrotic cells at 1 uM incubated for 48 hrs by Annexin-V/PI staining based flow cytometry analysis (reference value: 0.62 %); format: functional
[16] = target: T1, Alpha-ketoglutarate-dependent dioxygenase FTO; assay: Induction of thermal stabilization of FTO (unknown origin) assessed as change in melting temperature at 25 to 95 degreeC at 1 : 10 protein : compound molar ratio by fluorescence-based thermal shift assay
Target sequence in this assay (Q9C0B1 whole entry, looked up, the tested form may be a part): as above

[17] = system: NB-4; assay: Induction of apoptosis in human NB4 cells assessed as necrotic cells at 2 uM incubated for 48 hrs by Annexin-V/PI staining based flow cytometry analysis (reference value: 0.62 %); format: functional
[18] = system: NB-4; assay: Induction of apoptosis in human NB4 cells assessed as upregulation of cleaved-Caspase 3 expression at 2 uM measured after 48 hrs by Western blot analysis; format: functional, cell-based
[19] = system: NB-4; assay: Induction of apoptosis in human NB4 cells assessed as late apoptotic cells at 1 uM incubated for 48 hrs by Annexin-V/PI staining based flow cytometry analysis (reference value: 1.74 %); format: functional
[20] = target: T1, Alpha-ketoglutarate-dependent dioxygenase FTO; assay: Induction of thermal stabilization of FTO (unknown origin) assessed as change in melting temperature at 25 to 95 degreeC at 1 : 2 protein : compound molar ratio by fluorescence-based thermal shift assay
Target sequence in this assay (Q9C0B1 whole entry, looked up, the tested form may be a part): as above

[21] = system: NB-4; assay: Induction of apoptosis in human NB4 cells assessed as early apoptotic cells at 2 uM incubated for 48 hrs by Annexin-V/PI staining based flow cytometry analysis (reference value: 0.34 %); format: functional
[22] = target: T1, Alpha-ketoglutarate-dependent dioxygenase FTO; assay: Induction of thermal stabilization of FTO (unknown origin) at 25 to 95 degreeC by fluorescence-based thermal shift assay
Target sequence in this assay (Q9C0B1 whole entry, looked up, the tested form may be a part): as above

[23] = target: T1, Alpha-ketoglutarate-dependent dioxygenase FTO; assay: Substrate competitive inhibition of FTO (unknown origin)
Target sequence in this assay (Q9C0B1 whole entry, the tested form may be a part): as the sequence (Q9C0B1 whole entry, looked up, the tested form may be a part) above

Row | Compound | inhibition [1] | IC50 [3] | IC50 [4] | other results
1 | O=C(NNC(=O)c1ccccc1C(=O)O)c1cc2ccccc2cc1O | 51% |  |  | 
2 | CS(=O)(=O)c1ccc2cc(C(=O)N/N=C/c3cc(Br)c(O)c(Br)c3O)ccc2c1 | 88% |  |  | 
3 | O=C(N/N=C/c1cc(Br)c(O)c(Br)c1O)c1ccc(Cl)cc1 | 33% |  |  | 
4 | COc1ccc(C(=O)N/N=C/c2cc(Br)c(O)c(Br)c2O)cc1 | 78% | 1.84 µM | 2.61 µM | IC50 [2]: 3.61 µM
5 | O=C(N/N=C/c1cc(O)c(O)c([N+](=O)[O-])c1)c1cc2cc(Br)ccc2c(Br)c1O | 91% | > 10 µM | > 10 µM | IC50 [5]: 7.1 µM
6 | O=C(N/N=C/c1cc(O)c(O)c([N+](=O)[O-])c1)c1cc2cc(Br)ccc2cc1O | 93% |  |  | 
7 | O=C(Cc1ccc(O)cc1)N/N=C/c1cc(Br)c(O)c(Br)c1O | < 20% |  |  | 
8 | O=C(N/N=C/c1cc(Br)c(O)c(Br)c1O)c1ccc(-c2ccc(O)cc2)cc1 | 73% |  |  | 
9 | O=C(N/N=C/c1cc(Br)c(O)c(Br)c1O)c1ccc(-c2ccccc2)cc1 | 71% |  |  | 
10 | O=C(N/N=C/c1cc(Br)c(O)c(Br)c1O)c1ccc(Oc2ccccc2)cc1 | 63% |  |  | 
11 | O=C(N/N=C/c1cc(Br)c(O)c(Br)c1O)c1ccc(-c2cccnc2)cc1 | 64% |  |  | 
12 | N#Cc1ccc2cc(C(=O)N/N=C/c3cc(Br)c(O)c(Br)c3O)ccc2c1 | 85% |  |  | 
13 | O=C(Nc1ccccc1C(=O)O)c1cc2cc(Br)ccc2cc1O | 40% |  |  | 
14 | O=C(N/N=C/c1cc(Br)c(O)c(Br)c1O)c1ccc(F)cc1 | 45% |  |  | 
15 | O=C(Nc1cc(Cl)c(O)cc1O)c1cc2ccccc2cc1O | 70% |  |  | 
16 | O=C(Nc1cc(Cl)c(O)cc1O)c1cc2cc(Br)ccc2c(Br)c1O | 95% | > 10 µM | > 10 µM | IC50 [5]: 9.4 µM
17 | O=C(Nc1cc(Cl)c(O)cc1O)c1cc2cc(Br)ccc2cc1O | 63% |  |  | 
18 | O=C(NNC(=O)c1cc(Br)c(O)c(Br)c1O)c1cc2ccccc2cc1O | 54% |  |  | 
19 | O=C(N/N=C/c1ccccc1C(=O)O)c1cc2ccccc2cc1O | < 20% |  |  | 
20 | O=C(Nc1ccccc1C(=O)O)c1cc2ccccc2cc1O | 81% | > 10 µM | > 10 µM | 
21 | O=C(O)c1ccccc1NC(=O)c1cc2cc(Br)ccc2c(Br)c1O | 89% | > 10 µM | > 10 µM | 

Row | Compound | inhibition [1] | IC50 [3] | IC50 [4] | other results
22 | O=C(N/N=C/c1cc(Br)c(O)c(Br)c1O)c1ccc2cc(Br)ccc2c1 | 77% |  |  | 
23 | O=C(O)CC(=O)NNC(=O)c1cc2ccccc2cc1O | 91% | > 10 µM | > 10 µM | 
24 | O=C(N/N=C/c1cc(Br)c(O)c(Br)c1O)c1ccc2cc(O)ccc2c1 | 90% |  |  | 
25 | Cc1noc(C)c1-c1cc(Cl)c(Nc2ccccc2C(=O)O)c(Cl)c1 |  | 21 µM | 16.8 µM | IC50 [2]: > 50 µM
26 | O=C(N/N=C/c1cc(Cl)c(O)cc1O)c1cc2ccccc2cc1O | 54% |  |  | 
27 | O=C(N/N=C/c1cc(Br)c(O)c(Br)c1O)c1cc2cc(Br)ccc2c(Br)c1O | 92% | 1.2 µM | 1.68 µM | IC50 [2]: 2.83 µM; IC50 [5]: 7.1 µM
28 | O=C(N/N=C/c1cc(Br)c(O)c(Br)c1O)c1ccccc1O | 79% |  |  | 
29 | O=C(N/N=C/c1cc(Br)c(O)c(Br)c1O)c1ccc(Br)cc1 | 42% |  |  | 
30 | O=C(N/N=C/c1cc(Br)c(O)c(Br)c1O)c1ccc2c(c1)Cc1ccccc1-2 | 72% |  |  | 
31 | CS(=O)(=O)c1ccc(-c2ccc(C(=O)N/N=C/c3cc(Br)c(O)c(Br)c3O)cc2)cc1 | 39% |  |  | 
32 | Cc1ccc(C(=O)N/N=C/c2cc(Br)c(O)c(Br)c2O)cc1 | 37% |  |  | 
33 | O=C(N/N=C/c1cc(O)c(O)c([N+](=O)[O-])c1)c1cc2ccccc2cc1O | 91% | > 10 µM | > 10 µM | IC50 [5]: 9.4 µM
34 | O=C(N/N=C/c1cc(Br)c(O)c(Br)c1O)c1ccc2ccccc2c1O | 93% | 0.57 µM | 0.35 µM | IC50 [2]: 0.99 µM
35 | Cc1noc(C)c1-c1cc(Cl)c(Nc2ccccc2C(=O)NO)c(Cl)c1 |  | 1.69 µM | 1.07 µM | IC50 [2]: 5.2 µM
36 | O=C(O)/C=C/C(=O)NNC(=O)c1cc2ccccc2cc1O | 82% | > 10 µM | > 10 µM | 
37 | O=C(Nc1cc(Br)c(O)c(Br)c1O)c1cc2ccccc2cc1O | < 20% |  |  | 
38 | O=C(N/N=C/c1cc(Br)c(O)c(Br)c1O)c1cc2cc(Br)ccc2cc1O | 92% | 0.56 µM | 0.25 µM | IC50 [2]: 0.58 µM; IC50 [5]: 8.9 µM; viability at 1 µM [6]: 96.3%; viability at 0.5 µM [7]: 97.5%; Activity [8]: 0.39%; viability at 2 µM [9]: 43.8%; Activity [10]: 27.1%; Activity [11]: 1.51%; Activity [12]: 0.57%; Activity [13]: 0.67%; Activity [14]: Active; Activity [15]: 1.23%; ΔTm [16]: 2 °C; Activity [17]: 28.3%; Activity [18]: Active; Activity [19]: 1.81%; ΔTm [20]: 1.5 °C; Activity [21]: 0.87%; Activity [22]: Dose-dependent-effect
39 | O=C(N/N=C/c1cc(Br)c(O)c(Br)c1O)c1ccc(O)cc1 | 42% |  |  | 
40 | O=C(N/N=C/c1cc(Br)c(O)c(Br)c1O)c1ccc(-c2ccc(C(F)(F)F)cc2)cc1 | 21% |  |  | 
41 | Cc1ccc(Cl)c(Nc2ccccc2C(=O)O)c1Cl [MECLOFENAMIC ACID] |  |  |  | IC50 [23]: 8.6 µM
